Laboratory results: patent US20240294551A1 (AMGEN INC., priority 2022, published 2024)
Where two headings read alike, the source gives them in different places.

Tests used:
[1] = molecular target: His-tagged KRAS G12D protein (Homo sapiens (Human), UniProt P01116, G12D); experiment: KRAS G12D TR-FRET Assay; assay type: binding
Method in brief: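 Each incubation ran at room temperature: enzyme with compound for 30 minutes, peptide for one hour, and detection reagents (0.4 nM europium anti-6×His, 5 nM streptavidin-d2) for one hour more. Protein and peptide stocks were each diluted to 20 nM before addition.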

[2] = molecular target: GDP-bound KRAS protein (aa 1-169), containing both G12D and C118A amino acid substitutions (Homo sapiens (Human), UniProt P01116, C118A/G12D); experiment: KRAS G12D Coupled Nucleotide Exchange Assay; assay type: biochemical
Sequence of GDP-bound KRAS protein (aa 1-169), containing both G12D and C118A amino acid substitutions (P01116 other isoform, or with tags, fused parts or gaps G12D/C118A): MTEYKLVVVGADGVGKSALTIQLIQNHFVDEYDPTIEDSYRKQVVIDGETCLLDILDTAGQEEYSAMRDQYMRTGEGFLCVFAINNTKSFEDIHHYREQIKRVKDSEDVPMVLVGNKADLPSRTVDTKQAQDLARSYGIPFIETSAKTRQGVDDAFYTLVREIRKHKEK

[3] = tested on: Phosphorylation of ERK1/2 in AsPC-1 cells; experiment: Phospho-ERK1/2 MSD Assay; assay type: cell-based, human; conditions: Homo sapiens, ASPC1, 2 h
Method in brief: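 Read-out: MSD electrochemiluminescent detection of phosphorylated ERK1/2 in whole-cell lysates, fitted to a 4-parameter logistic curve for IC50. Prior to lysis, AsPC-1 cells (25,000 per well) received a 2 h compound dose-response at 37 °C.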

AsPC-1 cells = experiment: AsPC-1 CTG Assay (CellTiter-Glo cell viability); assay type: cell-based, human; conditions: Homo sapiens, ASPC1, 72 h, first value of the cell, read-out: G12D/C/V Cell Proliferation CTG (72 h) AsPC-1
Method in brief: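 IC50 values derive from 4-parameter logistic fits of CellTiter-Glo luminescence, expressed relative to DMSO. Compound dilution series were applied to overnight-seeded AsPC-1 or SW620 cells (RPMI 1640, 10% FBS) for 72 h at 37 °C, 5% CO2.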

MIA PaCa-2 cells = experiment: MIA PaCa-2 CTG Assay (CellTiter-Glo cell viability); assay type: cell-based, human; conditions: Homo sapiens, second value of the cell
Method in brief: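 IC50 values come from a 4-parameter logistic fit of CellTiter-Glo luminescence, normalized to DMSO control, after 72 h compound exposure at 37° C, 5% CO2. Cells grew in RPMI 1640 plus 10% FBS and were seeded at 1.67E+04 cells/mL one night before dosing.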

[4] = read-out: KRAS G12D Binding IC50
[5] = read-out: KRAS G12D Coupled Exchange IC50
[6] = read-out: 2 h p-ERK (AsPC-1 cells), IC50
[7] = Mia PaCa-2, 72 h, read-out: G12D/C/V Cell Proliferation CTG (72 h) Mia PaCa-2

Sequence of His-tagged KRAS G12D protein (P01116 other isoform, or with tags, fused parts or gaps G12D): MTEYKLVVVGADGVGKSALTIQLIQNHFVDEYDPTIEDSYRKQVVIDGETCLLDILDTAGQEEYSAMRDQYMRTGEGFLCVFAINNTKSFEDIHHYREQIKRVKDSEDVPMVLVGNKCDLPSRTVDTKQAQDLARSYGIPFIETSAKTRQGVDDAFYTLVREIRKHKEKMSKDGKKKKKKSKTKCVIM

| Structure (SMILES) | IC50 [1, 4] [nM] | IC50 [2, 5] [nM] | IC50 [3, 6] [nM] | IC50 (AsPC-1 cells; AsPC-1, 72 h) [nM] | IC50 (MIA PaCa-2 cells; [7]) [nM] | IC50 ([1]; TR-FRET, read-out: KRAS G12D Binding) [nM] | IC50 ([2]; 2 hours compound pre-incubation, read-out: KRAS G12D Coupled Exchange) [nM] | IC50 ([3]; read-out: 2 h p-ERK (AsPC-1 cells)) [nM] | IC50 (AsPC-1 cells; AsPC-1 cells (G12D), 72 h) [nM] | IC50 (MIA PaCa-2 cells; MIA PaCa-2 cells (G12C), 72 h, read-out: G12D/C/V Cell Proliferation CTG (72 h) MIA PaCa-2) [nM] |
| --- | --- | --- | --- | --- | --- | --- | --- | --- | --- | --- |
| CN1CCC[C@H]1COc1nc2c3cnc(c(F)c3n1)-c1c(c(Cl)cc3[nH]ncc13)CCCOCC(=O)N1CC[C@@H]3CCN2C[C@@H]31 [Example 267, (29S,33R)-18-chloro-34-fluoro-4-(((2S)-1-methyl-2-pyrrolidinyl)methoxy)-23-oxa-1,3,5,9,14,15,26-heptaazaheptacyclo[24.5.2.1~6,10~.0~2,7~.0~11,19~.0~12,16~.0~29,33~]tetratriaconta-2,4,6(34),7,9,11,13,16,18-nonaen-25-one] | 4 | 2 | 33.5 | 80 | 121 |  |  |  |  |  |
| Cc1cc2[nH]ncc2c2c1CCc1cnc(o1)[C@@H](O)[C@@H]1CCCN(C1)c1nc(OC[C@@]34CCCN3C[C@H](F)C4)nc3c(F)c-2ncc13 [Example 373] |  |  |  |  |  | 7 | 3 | 7 | 21 | 5 |
| Cc1cc2[nH]ncc2c2c1CCOC(=O)OC[C@@H]1CCCN(C1)c1nc(OC[C@@]34CCCN3C[C@H](F)C4)nc3c(F)c-2ncc13 [Example 126, (17R)-30-Fluoro-24-(((2R,7aS)-2-fluorotetrahydro-1H-pyrrolo[1,2-a]pyrrol-7a(5H)-yl)methoxy)-9-methyl-13,15-dioxa-5,6,21,23,25,29-hexaazahexacyclo[24.3.1.1˜17,21˜.0˜2,10˜.0˜3,7˜.0˜22,27˜]hentriaconta-1(30),2,4,7,9,22,24,26,28-nonaen-14-one bis(2,2,2-trifluoroacetate)] | 2 | 1 | 10 | 160 | 60 |  |  |  |  |  |
| CN1C[C@H](F)C[C@H]1COc1nc2c3cnc(c(F)c3n1)-c1cc(O)cc3ccc(F)c(c13)CCCC(=O)N[C@]1(C)CCCN2C1 [Example 5, (15R)-22,31-Difluoro-8-(((2S,4R)-4-fluoro-1-methyl-2-pyrrolidinyl)methoxy)-27-hydroxy-15-methyl-3,7,9,11,16-pentaazahexacyclo[19.7.1.1˜2,6˜.1˜11,15˜.0˜5,10˜.0˜25,29˜]hentriaconta-1(28),2(31),3,5,7,9,21,23,25(29),26-decaen-17-one bis(2,2,2-trifluoroacetate)] | 1 | 1 | 23 | 471 | 62 |  |  |  |  |  |
| C[C@@]12COCCN(C1)c1nc(OC[C@@]34CCCN3C[C@@H](F)C4)nc3c(F)c(ncc13)-c1c(c(Cl)cc3[nH]ncc13)CCCOC(=O)O2 [Example 359, (26S)-18-chloro-32-fluoro-4-(((25,7aS)-2-fluorotetrahydro-1H-pyrrolo[1,2-a]pyrrol-7a(5H)-yl)methoxy)-26-methyl-23,25,28-trioxa-1,3,5,9,14,15-hexaazahexacyclo[24.4.1.1~6,10~.0~2,7~.0~11,19~.0~12,16~]dotriaconta-2,4,6(32),7,9,11,13,16,18-nonaen-24-one] | 12 | 4 | 101 | 410 | 107 |  |  |  |  |  |
| Cc1cc2[nH]ncc2c2c1CCCCC(=O)O[C@@H]1COCCN(C1)c1nc(OC[C@@]34CCCN3C[C@H](F)C4)nc3c(F)c-2ncc13 [Example 83, (26S)-32-fluoro-4-(((2R,7aS)-2-fluorotetrahydro-1H-pyrrolo[1,2-a]pyrrol-7a(5H)-yl)methoxy)-18-methyl-25,28-dioxa-1,3,5,9,14,15-hexaazahexacyclo[24.4.1.1~6,10~.0~2,7~.0~11,19~.0~12,16~]dotriaconta-2,4,6,8,10(32),11,13,16,18-nonaen-24-one] | 4 | 3 | 15 | 160 | 40 |  |  |  |  |  |
| O=C1OCCc2c(F)ccc3cc(O)cc(c23)-c2ncc3c(nc(OC[C@@]45CCCN4C[C@H](F)C5)nc3c2F)N2CCOC[C@H](C2)O1 [Example 361, (16S)-23,32-difluoro-8-(((2R,7aS)-2-fluorotetrahydro-1H-pyrrolo[1,2-a]pyrrol-7a(5H)-yl)methoxy)-28-hydroxy-14,17,19-trioxa-3,7,9,11-tetraazahexacyclo[20.7.1.1~2,6~.1~11,16~.0~5,10~.0~26,30~]dotriaconta-1(30),2(32),3,5,7,9,22,24,26,28-decaen-18-one] | 3 | 1 | 0.4 | 7 | 5 |  |  |  |  |  |
| CN1C[C@H](F)C[C@H]1COc1nc2c3cnc(c(F)c3n1)-c1c(c(Cl)cc3[nH]ncc13)CCOC(=O)O[C@H]1C[C@@]3(CCCN2C3)C1 [Example 320, (1S,3R)-10-chloro-32-fluoro-24-(((2S,4R)-4-fluoro-1-methyl-2-pyrrolidinyl)methoxy)-4,6-dioxa-13,14,19,23,25,27-hexaazaheptacyclo[25.3.1.1~1,3~.1~18,22~.0~9,17~.0~12,16~.0~21,26~]tritriaconta-9,11,14,16,18(32),19,21,23,25-nonaen-5-one] | 4 | 3 | 13.8 | 137 | 80 |  |  |  |  |  |
| Cc1cc2[nH]ncc2c2c1C/C=C\COC[C@@H]1CCCN(C1)c1nc(OC[C@@]34CCCN3C[C@H](F)C4)nc3c(F)c-2ncc13 [Example 131] | 6 | 3 | 41 | 370 | 230 |  |  |  |  |  |
| C[C@@]12CCCN(C1)c1nc(OC[C@@]34CCCN3C[C@H](F)C4)nc3c(F)c(ncc13)-c1cc(O)cc3cccc(c13)CCCC(=O)N2 [Example 3, (15R)-31-Fluoro-8-(((2R,7aS)-2-fluorotetrahydro-1H-pyrrolo[1,2-a]pyrrol-7a(5H)-yl)methoxy)-27-hydroxy-15-methyl-3,7,9,11,16-pentaazahexacyclo[19.7.1.1˜2,6˜.1˜11,15˜.0˜5,10˜.0˜25,29˜]hentriaconta-1(28),2(31),3,5,7,9,21,23,25(29),26-decaen-17-one bis(2,2,2-trifluoroacetate)] | 1 | 0.1 | 23 | 285 | 75 |  |  |  |  |  |
| O=C1OCCCc2c(Cl)cc3[nH]ncc3c2-c2ncc3c(nc(OC[C@@]45CCCN4C[C@H](F)C5)nc3c2F)N2CCCC[C@](CF)(C2)O1 [Example 340, (26R)-18-chloro-32-fluoro-26-(fluoromethyl)-4-(((2R,7aS)-2-fluorotetrahydro-1H-pyrrolo[1,2-a]pyrrol-7a(5H)-yl)methoxy)-23,25-dioxa-1,3,5,9,14,15-hexaazahexacyclo[24.4.1.1~6,10~.0~2,7~.0~11,19~.0~12,16~]dotriaconta-2,4,6,8,10(32),11,13,16,18-nonaen-24-one] | 4 | 1 | 2.5 | 42 | 17 |  |  |  |  |  |
| Fc1c2ncc3c(nc(OC[C@@]45CCCN4C[C@H](F)C5)nc13)N1CCO[C@]3(C1)C[C@@H](C3)OCCCCc1c(Cl)cc3[nH]ncc3c1-2 (single isomer, unassigned) [Example 261] | 6 | 5 | 40.2 | 270 | 28 |  |  |  |  |  |
